SMILES strings stand for the structures. Bounds are passed on as bounds.

From article PMC8344233, “Anticancer activity and toxicity of new quaternary ammonium geldanamycin derivative salts and their mixtures with potentiators” (Journal of Enzyme Inhibition and Medicinal Chemistry, 2021) come the findings set out here.

One experiment relates to SKOV-3. Kind of experiment: SRB cytotoxicity assay, SKOV-3 (2nd panel). Format: cell-based, human. To be noted: for IC50: Homo sapiens, SK-OV-3, ± SD, SRB, 72 h, mixtures equimolar 1:1; for selectivity index SIHDF (SKOV-3): IC50 normal cell line HDF/IC50 SKOV-3. How it is done: Human cancer cells SKBR-3 (human breast cancer cell line) and SKOV-3 (ovarian cancer cell line) were cultured in McCoy’s Modified Medium. […]
(§1) Medium. Human Dermal Fibroblasts cell line (HDF) was cultured in Fibroblast Basal Medium.
(§2) Each medium was supplemented with 10% fetal bovine serum, 1% L-glutamine, and 1% penicillin/streptomycin solution. The cell lines were kept in the incubator at 37◦C. The optimal plating density of cell lines was determined to be 5 × 104. All the cell lines and mediums were obtained from American Type Culture Collection (ATCC) supplied by LGC-Standards. The protein-staining SRB (Sigma-Aldrich) microculture colorimetric assay, developed by the National Cancer Institute (USA) for in vitro antitumor screening was used in this study, to estimate the cell number by providing a sensitive index of total cellular protein content, being linear to cell density. The monolayer cell culture was trypsinized and the cell count was adjusted to 5 × 10^4 cells. To each well of the 96 well microtiter plate, 0.1 mL of the diluted cell suspension (approximately […]) was added. After 24 hours, when a partial monolayer was formed, the supernatant was washed out and 100 μL of six different compound concentrations (0.1, 0.2, 1, 2, 10, and 20 μM) were added to the cells in microtitre plates. The tested compounds were dissolved in DMSO (containing 10 % of water) (100 μL) and the […]
(§3) lines. The cells were exposed to compounds for 72 hours at 37 °C in a humidified atmosphere (90% RH) containing 5% CO2. After that, 25 μL of 50 % trichloroacetic acid was added to the wells and the plates were incubated for 1 hour at 4◦C. The plates were then washed out with the distilled water to remove traces of medium and next dried by the air. The air-dried plates were stained with 100 μL of 0.4% sulforhodamine B (prepared in 1 % acetic acid) and kept for 30 minutes at room temperature. The unbound dye was removed by rapidly washing with 1% […]
(§4) acetic acid and then air dried overnight. The protein-bound dye was dissolved in 100 μL of 10 mM unbuffered Tris base (pH 10.5) for optical density determination at 490 nm. All cytotoxicity experiments were performed three times. Cell survival was measured as the percentage absorbance compared to the control (nontreated cells). Cytarabine (ara-C) and GDM were used as the internal standards. Additionally biological assays were performed in Human Dermal Fibroblasts cell line (HDF) in aim to evaluate cytotoxicity of GDM and its 1-13 analogs in healthy cells. SI indexes were calculated from equation SI = IC50 normal cell line HDF/IC50 respective cancerous cell line (Table 2). A beneficial SI > 1.0 indicates a compound with efficacy against tumor cell greater than the toxicity against normal cells. […]
(In general: The SRB assay estimates cell density from bound dye.)

The subject of the next experiment is CCD39Lu. Kind of experiment: MTT cytotoxicity assay, normal lung fibroblasts CCD39Lu. The note with it: Fibroblast, ± SD, healthy human lung fibroblasts, 72 h, read-out: IC50 CCD39Lu (toxicity in normal cells). Format: cell-based. The method, then: (§5) Cell survival was measured as the percentage absorbance compared to the control (nontreated cells). […]
(§6) SI indexes were calculated from equation SI = IC50 normal cell line HDF/IC50 respective cancerous cell line (Table 2). A beneficial SI > 1.0 indicates a compound with efficacy against tumor cell greater than the toxicity against normal cells.
(§7) All experiments were carried out with human breast adenocarcinoma (MDA-MB-231 and MCF-7), hepatocellular carcinoma (HepG2), human cervical adenocarcinoma (HeLa) cancer cell lines, and human normal lung fibroblast (CCD39Lu) cell line. The cell line was purchased from the European Collection of Cells Cultures (ECACC, Salisbury, UK), and cultured in DMEM with phenol red supplemented with 10% (v/v) FBS, 1% (v/v) penicillin/streptomycin, and 1% (v/v) L-glutamine at 37 °C, in a humidified atmosphere containing 5% CO2.
(§8) The tested compounds were dissolved in DMSO to the final concentration 10 mM and stored […]
(§9) The cytotoxic effect of the tested compounds was determined by MTT assay. MDA-MB-231, MCF-7, HepG2, HeLa, and CCD39Lu cells were seeded in 96 wells plates at density 2x10^4 cells/well and incubated overnight under cell culture condition. Next, cells were treated with tested compounds at concentrations of 10 µM; 5 µM; 2.5 µM; 1.2 µM; 0.6 µM; 0.3 µM; 0.15 […]
(§10) µM. Moreover, GDM (for MCF-7) and 8 (for MCF-7 and MDA-MB-231) due to high cytotoxicity, were additionally tested at a lower concentration range of 2.5 µM; 1.2 µM; 0.6 µM; 0.3 µM; 0.15µM; 0.07 µM; 0.03 µM. DMSO was used as a control, and the concentration […]
(§11) Tested compounds were added to cells in the medium without phenol red. Cells were incubated 72 h at 37 °C in a humidified atmosphere containing 5% CO2.
(§12) Then, the medium was aspirated and MTT solution at a concentration of 0.59 mg/mL in cell culture medium was added to each well. Plates were incubated for 1.5 hours at 37 °C, and then plates were centrifuged for 3 minutes. The formazan crystals were dissolved in 200 µl DMSO and plates were agitated on a plate shaker at 300 –500 rpm for 10 minutes. Absorbance at 570 nm was measured using a plate reader (Biotek Instruments, Elx -800). Data were normalized to the mean absorption of control cells. All experiments were performed at least three times. […]
For orientation: Tetrazolium assays rely on reduction of a dye to a coloured formazan, in cell work by metabolically active cells.

The test system of the next experiment is PC-3. Kind of experiment: SRB cytotoxicity assay, PC-3 (2nd panel). Format: cell-based, human. The note with it: for IC50: Homo sapiens, PC-3, ± SD, SRB, 72 h, mixtures equimolar 1:1; for selectivity index SIHDF (PC-3): IC50 normal cell line HDF/IC50 PC-3. How it is done: as §1, §2, §3, §4
In a further experiment the test system is A-549. Kind of experiment: SRB cytotoxicity assay, A-549 (2nd panel). The note with it: for IC50: Homo sapiens, A549, ± SD, SRB, 72 h; for selectivity index SIHDF (A-549): IC50 normal cell line HDF/IC50 A-549. Format: cell-based, human. How it is done:
as §1, §2, §3, §4

A further experiment relates to MCF-7. Kind of experiment: MTT cytotoxicity assay, MCF-7 (1st panel). Format: cell-based, human. The note with it: for IC50: ± SD, MTT, 72 h; for selectivity index SI (MCF-7): IC50 normal cell line CCD39Lu/IC50 MCF-7. How it is done:
as §5, §6, §7, §8, §9, §10, §11, §12

In a further experiment the test system is HeLa. Kind of experiment: MTT cytotoxicity assay, HeLa (1st panel). To be noted: for IC50: Homo sapiens, HeLa, ± SD, MTT, 72 h; for selectivity index SI (HeLa): IC50 normal cell line CCD39Lu/IC50 HeLa. Format: cell-based, human. The method, then: as §5, §6, §7, §8, §9, §10, §11, §12
In a further experiment the test system is U-87. Kind of experiment: SRB cytotoxicity assay, U-87 (2nd panel). Format: cell-based, human. The note with it: for IC50: Homo sapiens, U-87 MG, ± SD, SRB, 72 h; for selectivity index SIHDF (U-87): IC50 normal cell line HDF/IC50 U-87. How it is done: U-87MG cells (glioblastoma cell line) were cultured in Eagle’s Minimal Essential Medium. Human Dermal Fibroblasts cell line (HDF) was cultured in Fibroblast Basal Medium.
as §2, §3, §4

With `CO[C@H]1/C=C\C=C(/C)C(=O)NC2=CC(=O)C(NC3CCC3)=C(C[C@@H](C)C[C@H](OC)[C@H](O)[C@@H](C)/C=C(\C)[C@@H]1OC(N)=O)C2=O` [Compound 1], the IC50 in the experiment on SKOV-3 was 8040 ± 240 nM; in the experiment on CCD39Lu, above 10000 nM; with PC-3 it was 7020 ± 60 nM; in the experiment on A-549, 9010 ± 630 nM; in the experiment on MCF-7 (Homo sapiens, MCF7, 72 h) it was around 100 nM; with MCF-7 it was 130 ± 10 nM. The 50% inhibitory concentration (IC50) in the experiment with HeLa turned out to be 1670 ± 540 nM; in the experiment with U-87, 7320 ± 490 nM. The “selectivity index SIHDF (SKOV-3)” value in the experiment on SKOV-3 is recorded as 3.73. For the same compound, the “selectivity index SIHDF (PC-3)” value in the experiment on PC-3 was 4.28. Besides, the “selectivity index SIHDF (A-549)” value in the experiment on A-549 worked out at 3.33. Also, the “selectivity index SI (MCF-7)” value in the experiment on MCF-7 is on record as above 76.92. Also, the “selectivity index SI (HeLa)” value in the experiment with HeLa was above 5.99. In the experiment with U-87, the “selectivity index SIHDF (U-87)” value is 4.10.
Regarding `CO[C@H]1/C=C\C=C(/C)C(=O)NC2=CC(=O)C(NC3CN4CCC3CC4)=C(C[C@@H](C)C[C@H](OC)[C@H](O)[C@@H](C)/C=C(\C)[C@@H]1OC(N)=O)C2=O` (some centres unmarked) [Compound 8], the IC50 in the experiment on SKOV-3 is 1160 ± 920 nM; in the experiment on CCD39Lu, 870 ± 220 nM; in the experiment with PC-3 it was 1470 ± 310 nM; with A-549 it was 940 ± 30 nM; in the experiment with MCF-7 (Homo sapiens, MCF7, 72 h), around 100 nM; in the experiment on MCF-7, 90 ± 10 nM. The values for the half-maximal inhibitory concentration (IC50) in the experiment on HeLa and in the experiment with U-87 were 1060 ± 260 nM and 1080 ± 160 nM, respectively. Besides, the “selectivity index SIHDF (SKOV-3)” value in the experiment with SKOV-3 was determined as 2.78. The “selectivity index SIHDF (PC-3)” value in the experiment on PC-3 is reported as 2.19. Also, the “selectivity index SI (MCF-7)” value in the experiment with MCF-7 was found to be 9.67. Besides, the “selectivity index SI (HeLa)” value with HeLa stood at 0.82.
Turning to `C=CC[N+]12CCC(CC1)C(NC1=C3C[C@@H](C)C[C@H](OC)[C@H](O)[C@@H](C)/C=C(\C)[C@H](OC(N)=O)[C@@H](OC)/C=C\C=C(/C)C(=O)NC(=CC1=O)C3=O)C2` (some centres unmarked) [Compound 9], the IC50 in the experiment with SKOV-3 is 3860 ± 50 nM; with CCD39Lu it was above 10000 nM; with PC-3, 3010 ± 110 nM; with A-549, 3090 ± 10 nM; in the experiment on MCF-7 (Homo sapiens, MCF7, 72 h), 2340 ± 560 nM; with HeLa, 9250 ± 980 nM. Moreover, in the experiment with U-87, the IC50 came to 3690 ± 80 nM. In the experiment on SKOV-3, the “selectivity index SIHDF (SKOV-3)” value amounted to 1.37. Also, the “selectivity index SIHDF (PC-3)” value in the experiment on PC-3 is listed as 1.76. Also, the “selectivity index SIHDF (A-549)” value in the experiment on A-549 came to 1.71. For the same compound, the “selectivity index SI (MCF-7)” value in the experiment with MCF-7 is on record as above 4.27. For the same compound, the “selectivity index SI (HeLa)” value in the experiment with HeLa is on record as above 1.08. Besides, in the experiment on U-87, the “selectivity index SIHDF (U-87)” value amounted to 1.43.
On to `C/C=C/C[N+]12CCC(CC1)C(NC1=C3C[C@@H](C)C[C@H](OC)[C@H](O)[C@@H](C)/C=C(\C)[C@H](OC(N)=O)[C@@H](OC)/C=C\C=C(/C)C(=O)NC(=CC1=O)C3=O)C2` (some centres unmarked) [Compound 10], for which the IC50 was 1610 ± 130 nM in the experiment on SKOV-3; above 10000 nM in the experiment with CCD39Lu; 1880 ± 20 nM in the experiment with PC-3; 1290 ± 70 nM with A-549; 2510 ± 1030 nM in the experiment with MCF-7 (Homo sapiens, MCF7, 72 h); 7430 ± 3210 nM in the experiment with HeLa. The compound also registered an IC50 with U-87 of 1840 ± 110 nM. Also, the “selectivity index SIHDF (SKOV-3)” value with SKOV-3 is 1.84. The “selectivity index SIHDF (PC-3)” value with PC-3 is 1.57. The “selectivity index SIHDF (A-549)” value in the experiment on A-549 was 2.29. The “selectivity index SI (MCF-7)” value with MCF-7 was above 3.98. In the experiment with HeLa, the “selectivity index SI (HeLa)” value is above 1.35. In the experiment on U-87, the “selectivity index SIHDF (U-87)” value came out at 1.61.
Regarding `CO[C@H]1/C=C\C=C(/C)C(=O)NC2=CC(=O)C(NC3C[N+]4(C/C=C/c5ccccc5)CCC3CC4)=C(C[C@@H](C)C[C@H](OC)[C@H](O)[C@@H](C)/C=C(\C)[C@@H]1OC(N)=O)C2=O` (some centres unmarked) [Compound 13], the IC50 was 2170 ± 60 nM with SKOV-3; above 10000 nM in the experiment with CCD39Lu; 2050 ± 90 nM with PC-3; 2060 ± 10 nM in the experiment on A-549; 2310 ± 970 nM in the experiment with MCF-7 (Homo sapiens, MCF7, 72 h); 8140 ± 640 nM in the experiment on HeLa. Moreover, the half-inhibitory concentration (IC50) with U-87 was found to be 2260 ± 150 nM. Further, in the experiment on SKOV-3, the “selectivity index SIHDF (SKOV-3)” value is given as 1.76. The “selectivity index SIHDF (PC-3)” value in the experiment with PC-3 is 1.86. Besides, in the experiment with A-549, the “selectivity index SIHDF (A-549)” value was 1.85. In addition, the “selectivity index SI (MCF-7)” value in the experiment with MCF-7 was above 4.33. For the same compound, in the experiment with HeLa, the “selectivity index SI (HeLa)” value is reported as above 1.23. In addition, the “selectivity index SIHDF (U-87)” value in the experiment with U-87 is listed as 1.67.

Usually IC50 stands for the concentration that inhibits the measured activity by half.
